Tests used:
[1] = Drug metabolism in iv dosed cynomolgus monkey plasma measured at 60 mins post-injection by HPLC analysis; type: ADME, organism-based, Macaca fascicularis; settings: read-out: Drug metabolism
Blood = test: Biodistribution in Sprague-Dawley rat blood at 14.8 to 18.5 MBq, iv treated with MP-10 for 5 mins prior to compound administration measured at 30 mins post-injection by gamma counting analysis; type: ADME, organism-based; settings: in vivo, 0.5 h
Liver [2] = test: Biodistribution in Sprague-Dawley rat liver at 14.8 to 18.5 MBq, iv measured at 5 mins post-injection by gamma counting analysis; type: ADME, organism-based; settings: in vivo
Rattus norvegicus = test: Biodistribution in Sprague-Dawley rat fat at 14.8 to 18.5 MBq, iv measured at 5 mins post-injection by gamma counting analysis; type: ADME, organism-based, Adipose tissue; settings: in vivo
Liver [3] = test: Biodistribution in Sprague-Dawley rat liver at 14.8 to 18.5 MBq, iv measured at 30 mins post-injection by gamma counting analysis; type: ADME, organism-based; settings: in vivo, 0.5 h
Liver [4] = test: Biodistribution in Sprague-Dawley rat liver at 14.8 to 18.5 MBq, iv measured at 60 mins post-injection by gamma counting analysis; type: ADME, organism-based; settings: in vivo, 1 h
Kidney [5] = test: Biodistribution in Sprague-Dawley rat kidney at 14.8 to 18.5 MBq, iv measured at 60 mins post-injection by gamma counting analysis; type: ADME, organism-based; settings: in vivo, 1 h
Heart [6] = test: Biodistribution in Sprague-Dawley rat heart at 14.8 to 18.5 MBq, iv measured at 60 mins post-injection by gamma counting analysis; type: ADME, organism-based; settings: in vivo, 1 h
Striatum = test: Biodistribution in Sprague-Dawley rat striatum at 14.8 to 18.5 MBq, iv measured at 60 mins post-injection by gamma counting analysis; type: ADME, organism-based; settings: in vivo, 1 h
Kidney [7] = test: Biodistribution in Sprague-Dawley rat kidney at 14.8 to 18.5 MBq, iv treated with MP-10 for 5 mins prior to compound administration measured at 30 mins post-injection by gamma counting analysis; type: ADME, organism-based; settings: in vivo, 0.5 h
Muscle tissue = test: Biodistribution in Sprague-Dawley rat muscle at 14.8 to 18.5 MBq, iv treated with MP-10 for 5 mins prior to compound administration measured at 30 mins post-injection by gamma counting analysis; type: ADME, organism-based; settings: in vivo, 0.5 h
Heart [8] = test: Biodistribution in Sprague-Dawley rat heart at 14.8 to 18.5 MBq, iv treated with MP-10 for 5 mins prior to compound administration measured at 30 mins post-injection by gamma counting analysis; type: ADME, organism-based; settings: in vivo, 0.5 h
Nucleic Acid [9] = test: Ratio of drug level in striatum to cerebellum in Sprague-Dawley rat at 14.8 to 18.5 MBq, iv measured at 60 mins post-injection by gamma counting analysis; type: ADME, organism-based; settings: in vivo, 1 h
Brain = test: Biodistribution in cynomolgus monkey middle brain at 260 to 370 MBq, iv measured at 20 to 100 mins post-injection by microPET analysis; type: ADME, organism-based, Macaca fascicularis; settings: in vivo
Occipital cortex = test: Biodistribution in cynomolgus monkey occipital cortex at 260 to 370 MBq, iv measured at 20 to 100 mins post-injection by microPET analysis; type: ADME, organism-based, Macaca fascicularis; settings: in vivo
[10] = Biodistribution in cynomolgus monkey striatum at 260 to 370 MBq, iv measured at 25 mins post-injection by microPET analysis; type: ADME, organism-based, Macaca fascicularis; settings: in vivo
Nucleic Acid [11] = test: Ratio of drug level in striatum to cerebellum in cynomolgus monkey at 260 to 370 MBq, iv measured at 25 mins post-injection by microPET analysis; type: ADME, organism-based, Macaca fascicularis; settings: in vivo
Plasma [12] = test: Drug metabolism in iv dosed cynomolgus monkey plasma assessed as retention time of hydrophilic metabolite by HPLC analysis; type: ADME, organism-based, Macaca fascicularis; settings: in vivo
Plasma [13] = test: Drug metabolism in iv dosed cynomolgus monkey plasma assessed as retention time by HPLC analysis; type: ADME, organism-based, Macaca fascicularis; settings: in vivo
[14] = Drug metabolism in iv dosed cynomolgus monkey plasma assessed as compound remaining measured at 15 mins post-injection by HPLC analysis; type: ADME, organism-based, Macaca fascicularis; settings: read-out: Stability
Plasma [15] = test: Drug metabolism in iv dosed cynomolgus monkey plasma assessed as compound remaining by HPLC analysis; type: ADME, organism-based, Macaca fascicularis; settings: in vivo
[16] = Drug metabolism in iv dosed cynomolgus monkey plasma assessed as compound remaining measured at 30 mins post-injection by HPLC analysis; type: ADME, organism-based, Macaca fascicularis; settings: read-out: Stability
[17] = Drug metabolism in iv dosed cynomolgus monkey plasma assessed as compound remaining measured at 60 mins post-injection by HPLC analysis; type: ADME, organism-based, Macaca fascicularis; settings: read-out: Stability
Nucleic Acid [18] = test: Ratio of drug level in striatum to cerebellum in cynomolgus monkey at 260 to 370 MBq, iv measured at 80 mins post-injection by microPET analysis; type: ADME, organism-based, Macaca fascicularis; settings: in vivo
[19] = Biodistribution in cynomolgus monkey striatum at 260 to 370 MBq, iv measured at 30 mins post-injection by microPET analysis; type: ADME, organism-based, Macaca fascicularis; settings: in vivo, 0.5 h
Nucleic Acid [20] = test: Ratio of drug level in striatum to cerebellum in cynomolgus monkey at 260 to 370 MBq, iv measured at 30 mins post-injection by microPET analysis; type: ADME, organism-based, Macaca fascicularis; settings: in vivo, 0.5 h
[21] = Drug metabolism in iv dosed cynomolgus monkey plasma assessed as compound remaining measured at 2 mins post-injection by HPLC analysis; type: ADME, organism-based, Macaca fascicularis; settings: read-out: Stability
Plasma [22] = test: Drug recovery in iv dosed cynomolgus monkey plasma measured at 30 mins post-injection by HPLC analysis; type: ADME, organism-based, Macaca fascicularis; settings: in vivo, 0.5 h
[23] = Drug recovery in iv dosed cynomolgus monkey arterial blood measured at 60 mins post-injection by HPLC analysis; type: ADME, organism-based, Macaca fascicularis; settings: in vivo, 1 h
[24] = Drug recovery in iv dosed cynomolgus monkey arterial blood assessed as radiometabolite level measured at 60 mins post-injection by HPLC analysis; type: ADME, organism-based, Macaca fascicularis; settings: in vivo, 1 h

In the case of `Cn1cc(-c2ccncc2)c(-c2ccc(OCc3cc(O[11CH3])c4ccccc4n3)cc2)n1`, the metabolised at 1 h [1] is reported as 42%, the Drug uptake (Blood) is reported as 0.343 % ID/g and the Drug uptake (Liver [2]) is reported as 7.08 % ID/g. For the same compound, the Drug uptake (Rattus norvegicus) was 0.242 % ID/g, the Drug uptake (Liver [3]) was 10.085 % ID/g and the Drug uptake (Liver [4]) was 8.941 % ID/g. For the same compound, the Drug uptake (Kidney [5]) was 0.758 % ID/g, the Drug uptake (Heart [6]) was 0.121 % ID/g and the Drug uptake (Striatum) was 0.201 % ID/g. The Drug uptake (Kidney [7]) was 1.072 % ID/g, the Drug uptake (Muscle tissue) was 0.224 % ID/g and the Drug uptake (Heart [8]) was 0.31 % ID/g. The Ratio (Nucleic Acid [9]) was 4.5, the Drug uptake (Brain) was “Active” and the Drug uptake (Occipital cortex) was “Active”. For the same compound, the Drug uptake [10] was “Active”, the Ratio (Nucleic Acid [11]) was 2.7 and the Retention_time (Plasma [12]) was 3 min. For the same compound, the Retention_time (Plasma [13]) was 9 min, the remaining at 0.25 h [14] was 75% and the Stability (Plasma [15]) was 85%. The remaining at 0.5 h [16] was 60% and the remaining at 1 h [17] was 42%.
`Cn1cc(-c2ccncc2)c(-c2ccc(OCc3nc4ccccc4cc3O[11CH3])cc2)n1` gave a Ratio (Nucleic Acid [18]) of 4.5, a Drug uptake (Blood) of 0.407 % ID/g and a Drug uptake (Liver [2]) of 11.005 % ID/g. For the same compound, the Drug uptake (Rattus norvegicus) was 0.935 % ID/g, the Drug uptake (Liver [3]) was 7.345 % ID/g and the Drug uptake (Liver [4]) was 6.398 % ID/g. The Drug uptake (Kidney [5]) was 1.275 % ID/g, the Drug uptake (Heart [6]) was 0.199 % ID/g and the Drug uptake (Striatum) was 0.38 % ID/g. The Drug uptake (Kidney [7]) was 1.523 % ID/g, the Drug uptake (Muscle tissue) was 0.257 % ID/g and the Drug uptake (Heart [8]) was 0.34 % ID/g. The Ratio (Nucleic Acid [9]) was 6, the Drug uptake (Brain) was “Active” and the Drug uptake (Occipital cortex) was “Active”. It also gave an SUV [19] of 1.8, a Ratio (Nucleic Acid [20]) of 3.5 and a Retention_time (Plasma [12]) of 3 min. The Retention_time (Plasma [13]) was 8 min, the remaining at 2 min [21] was 97% and the remaining at 0.25 h [14] was 87%. The Drug recovery (Plasma [22]) was 82%, the Drug recovery [23] was 65% and the Drug recovery [24] was 30%.

Reference: ChEMBL document CHEMBL3259797, “Radiosyntheses and in vivo evaluation of carbon-11 PET tracers for PDE10A in the brain of rodent and nonhuman primate” (Bioorg Med Chem, 2014)
